{"source": "ChEMBL document CHEMBL4385638", "about": "“Synthesis and biological evaluation of 1-alkylaminomethyl-1,1-bisphosphonic acids against Trypanosoma cruzi and Toxoplasma gondii” (Bioorg Med Chem, 2019)", "key": {"[1]": {"test": "Cytotoxicity against African green monkey Vero cells assessed as decrease in cell viability after 3 to 4 days by alamar blue assay", "format": "cell-based", "settings": "chlorocebus sabaeus, read-out: ED50 (the source's name)"}, "[2]": {"target": "T1, Farnesyl diphosphate synthase (Toxoplasma gondii, UniProt Q197X6)", "T1 sequence (Q197X6 whole entry)": "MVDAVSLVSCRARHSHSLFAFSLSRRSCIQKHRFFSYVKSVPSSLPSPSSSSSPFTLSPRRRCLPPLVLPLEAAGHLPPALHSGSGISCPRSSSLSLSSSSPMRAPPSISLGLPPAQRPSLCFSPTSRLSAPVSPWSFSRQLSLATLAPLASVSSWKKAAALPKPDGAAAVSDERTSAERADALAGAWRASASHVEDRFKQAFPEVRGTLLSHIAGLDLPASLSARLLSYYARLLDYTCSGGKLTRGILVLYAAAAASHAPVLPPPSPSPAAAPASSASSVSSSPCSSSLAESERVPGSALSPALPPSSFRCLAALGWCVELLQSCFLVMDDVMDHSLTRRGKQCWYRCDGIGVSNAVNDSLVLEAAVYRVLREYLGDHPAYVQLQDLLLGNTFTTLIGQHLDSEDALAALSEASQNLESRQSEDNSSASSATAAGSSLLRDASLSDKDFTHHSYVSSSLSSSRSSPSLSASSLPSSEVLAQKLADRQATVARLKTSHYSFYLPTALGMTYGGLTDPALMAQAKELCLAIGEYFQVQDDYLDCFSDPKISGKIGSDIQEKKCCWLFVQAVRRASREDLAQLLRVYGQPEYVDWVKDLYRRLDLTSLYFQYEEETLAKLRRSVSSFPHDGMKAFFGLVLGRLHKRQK", "test": "Inhibition of Toxoplasma gondii FPPS using DMAPP as substrate incubated for 30 mins measured by scintillation counting"}, "Toxoplasma gondii [3]": {"system": "Toxoplasma gondii", "test": "Antiparasitic activity against Toxoplasma gondii tachyzoites infected in human TerT cells assessed as decrease in parasite viability by red fluorescent protein based fluorescence method", "format": "functional", "settings": "read-out: ED50 (the source's name)"}, "[4]": {"target": "T2, Farnesyl diphosphate synthase (Trypanosoma cruzi, UniProt Q8WS26)", "T2 sequence (Q8WS26 whole entry)": "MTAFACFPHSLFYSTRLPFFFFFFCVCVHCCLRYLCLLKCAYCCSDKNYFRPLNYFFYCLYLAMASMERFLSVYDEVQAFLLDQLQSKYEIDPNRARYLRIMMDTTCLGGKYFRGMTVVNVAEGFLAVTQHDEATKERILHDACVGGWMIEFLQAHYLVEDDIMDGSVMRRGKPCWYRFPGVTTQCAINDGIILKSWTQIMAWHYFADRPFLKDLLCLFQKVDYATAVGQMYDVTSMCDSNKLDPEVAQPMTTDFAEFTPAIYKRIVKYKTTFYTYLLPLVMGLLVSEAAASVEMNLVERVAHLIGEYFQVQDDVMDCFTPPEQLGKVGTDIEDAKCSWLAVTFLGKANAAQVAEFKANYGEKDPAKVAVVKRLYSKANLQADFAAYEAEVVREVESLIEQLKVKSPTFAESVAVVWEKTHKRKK", "test": "Inhibition of Trypanosoma cruzi FPPS using DMAPP as substrate incubated for 30 mins measured by scintillation counting"}, "Trypanosoma cruzi": {"system": "Trypanosoma cruzi", "test": "Antiparasitic activity against Trypanosoma cruzi amastigote infected in African green monkey Vero cells decrease in parasite viability measured at day 3 of post infection by red fluorescent protein based fluorescence method", "format": "functional", "settings": "72 h, read-out: ED50 (the source's name)"}, "Toxoplasma gondii [5]": {"system": "Toxoplasma gondii", "test": "Antiparasitic activity against Toxoplasma gondii RH tachyzoites infected in ip dosed Webster mouse assessed as increase in survival rate administered daily starting on day 6 post infection for 10 days and measured 30 days post infection (reference value: 9 to 12 days)", "format": "functional"}, "Vero [6]": {"system": "Vero", "test": "Cytotoxicity against African green monkey Vero cells assessed as decrease in cell viability at 5 to 10 uM after 3 to 4 days by alamar blue assay", "format": "cell-based", "settings": "chlorocebus sabaeus"}, "Vero [7]": {"system": "Vero", "test": "Cytotoxicity against African green monkey Vero cells assessed as decrease in cell viability at 2.5 uM after 3 to 4 days by alamar blue assay", "format": "cell-based", "settings": "chlorocebus sabaeus"}}, "data": [{"smiles": "CCCCCCCCCCNCC(F)(P(=O)(O)O)P(=O)(O)O", "values": [{"measurement": "CC50", "setting": "[1]", "value": 20000, "unit": "nM"}, {"measurement": "IC50", "setting": "[2]", "value": 80, "unit": "nM"}, {"measurement": "EC50", "setting": "Toxoplasma gondii [3]", "value": 2260, "unit": "nM"}, {"measurement": "IC50", "setting": "[4]", "value": 136, "unit": "nM"}]}, {"smiles": "O=P(O)(O)C(CNC1CCCCCC1)P(=O)(O)O", "values": [{"measurement": "EC50", "setting": "Toxoplasma gondii [3]", "value": "> 20000", "unit": "nM"}]}, {"smiles": "CCCCCCCSCC(P(=O)(O)O)P(=O)(O)O", "values": [{"measurement": "EC50", "setting": "Trypanosoma cruzi", "value": "> 20000", "unit": "nM"}, {"measurement": "EC50", "setting": "Toxoplasma gondii [3]", "value": 970, "unit": "nM"}]}, {"smiles": "CCCCCCCCNCC(F)(P(=O)(O)O)P(=O)(O)O", "values": [{"measurement": "EC50", "setting": "Trypanosoma cruzi", "value": "> 10000", "unit": "nM"}, {"measurement": "CC50", "setting": "[1]", "value": 162000, "unit": "nM"}, {"measurement": "IC50", "setting": "[2]", "value": 79, "unit": "nM"}, {"measurement": "EC50", "setting": "Toxoplasma gondii [3]", "value": 4010, "unit": "nM"}, {"measurement": "IC50", "setting": "[4]", "value": 85, "unit": "nM"}]}, {"smiles": "O=C(Cn1ccnc1[N+](=O)[O-])NCc1ccccc1", "note": "[BENZNIDAZOLE]", "values": [{"measurement": "EC50", "setting": "Trypanosoma cruzi", "value": 2580, "unit": "nM"}]}, {"smiles": "CCCCCCCCCCS(=O)(=O)CC(P(=O)(O)O)P(=O)(O)O", "values": [{"measurement": "IC50", "setting": "[2]", "value": 270, "unit": "nM"}, {"measurement": "ED50", "setting": "Toxoplasma gondii [5]", "value": 0.02, "unit": "mg/kg"}, {"measurement": "EC50", "setting": "Toxoplasma gondii [3]", "value": 110, "unit": "nM"}]}, {"smiles": "CCCCCCCCCCSCC(P(=O)(O)O)P(=O)(O)O", "values": [{"measurement": "EC50", "setting": "Toxoplasma gondii [3]", "value": 1800, "unit": "nM"}]}, {"smiles": "CCCCCCCC[S+](C)CC(P(=O)(O)O)P(=O)(O)O", "note": "(centres undefined)", "values": [{"measurement": "EC50", "setting": "Toxoplasma gondii [3]", "value": 7000, "unit": "nM"}]}, {"smiles": "CCCCCCCNCC(P(=O)(O)O)P(=O)(O)O", "values": [{"measurement": "EC50", "setting": "Trypanosoma cruzi", "value": 10000, "unit": "nM"}, {"measurement": "EC50", "setting": "Toxoplasma gondii [3]", "value": "> 50000", "unit": "nM"}]}, {"smiles": "CCCCCCCCCCCS(=O)(=O)CC(P(=O)(O)O)P(=O)(O)O", "values": [{"measurement": "EC50", "setting": "Toxoplasma gondii [3]", "value": 380, "unit": "nM"}]}, {"smiles": "CCCCNCC(F)(P(=O)(O)O)P(=O)(O)O", "values": [{"measurement": "EC50", "setting": "Trypanosoma cruzi", "value": "> 10000", "unit": "nM"}, {"measurement": "CC50", "setting": "[1]", "value": "> 200000", "unit": "nM"}, {"measurement": "IC50", "setting": "[2]", "value": 286, "unit": "nM"}, {"measurement": "EC50", "setting": "Toxoplasma gondii [3]", "value": "> 10000", "unit": "nM"}, {"measurement": "IC50", "setting": "[4]", "value": 173, "unit": "nM"}]}, {"smiles": "CCCNCC(F)(P(=O)(O)O)P(=O)(O)O", "values": [{"measurement": "EC50", "setting": "Trypanosoma cruzi", "value": "> 10000", "unit": "nM"}, {"measurement": "IC50", "setting": "[2]", "value": 245, "unit": "nM"}, {"measurement": "IC50", "setting": "[4]", "value": 60, "unit": "nM"}]}, {"smiles": "CCCCCCCNCC(F)(P(=O)(O)O)P(=O)(O)O", "values": [{"measurement": "EC50", "setting": "Trypanosoma cruzi", "value": "> 10000", "unit": "nM"}, {"measurement": "IC50", "setting": "[2]", "value": 88, "unit": "nM"}, {"measurement": "EC50", "setting": "Toxoplasma gondii [3]", "value": "> 10000", "unit": "nM"}, {"measurement": "IC50", "setting": "[4]", "value": 71, "unit": "nM"}]}, {"smiles": "CC1CCC(NCC(P(=O)(O)O)P(=O)(O)O)CC1", "note": "(centres undefined)", "values": [{"measurement": "EC50", "setting": "Toxoplasma gondii [3]", "value": "> 20000", "unit": "nM"}]}, {"smiles": "CCCCCCCCCCCCS(=O)(=O)CC(P(=O)(O)O)P(=O)(O)O", "values": [{"measurement": "EC50", "setting": "Toxoplasma gondii [3]", "value": 930, "unit": "nM"}]}, {"smiles": "CCCCCCNCC(P(=O)(O)O)P(=O)(O)O", "values": [{"measurement": "EC50", "setting": "Toxoplasma gondii [3]", "value": 9400, "unit": "nM"}]}, {"smiles": "CCCCCCCCCNCC(F)(P(=O)(O)O)P(=O)(O)O", "values": [{"measurement": "CC50", "setting": "[1]", "value": 15000, "unit": "nM"}, {"measurement": "IC50", "setting": "[2]", "value": 51, "unit": "nM"}, {"measurement": "EC50", "setting": "Toxoplasma gondii [3]", "value": 2240, "unit": "nM"}, {"measurement": "IC50", "setting": "[4]", "value": 34, "unit": "nM"}]}, {"smiles": "CCCCCCCCCCCCNCC(P(=O)(O)O)P(=O)(O)O", "values": [{"measurement": "EC50", "setting": "Toxoplasma gondii [3]", "value": 6230, "unit": "nM"}]}, {"smiles": "CCCCCCCCCCCSCC(P(=O)(O)O)P(=O)(O)O", "values": [{"measurement": "EC50", "setting": "Toxoplasma gondii [3]", "value": 540, "unit": "nM"}]}, {"smiles": "CCCCCNCC(F)(P(=O)(O)O)P(=O)(O)O", "values": [{"measurement": "EC50", "setting": "Trypanosoma cruzi", "value": "> 10000", "unit": "nM"}, {"measurement": "IC50", "setting": "[2]", "value": 299, "unit": "nM"}, {"measurement": "EC50", "setting": "Toxoplasma gondii [3]", "value": "> 10000", "unit": "nM"}, {"measurement": "IC50", "setting": "[4]", "value": 611, "unit": "nM"}]}, {"smiles": "CCCCCCCCCCC[S+]([O-])CC(P(=O)(O)O)P(=O)(O)O", "note": "(centres undefined)", "values": [{"measurement": "EC50", "setting": "Toxoplasma gondii [3]", "value": 530, "unit": "nM"}]}, {"smiles": "CCCCCCNCC(F)(P(=O)(O)O)P(=O)(O)O", "values": [{"measurement": "EC50", "setting": "Trypanosoma cruzi", "value": "> 10000", "unit": "nM"}, {"measurement": "IC50", "setting": "[2]", "value": 131, "unit": "nM"}, {"measurement": "EC50", "setting": "Toxoplasma gondii [3]", "value": "> 10000", "unit": "nM"}, {"measurement": "IC50", "setting": "[4]", "value": 915, "unit": "nM"}]}, {"smiles": "CCCCCCCCNCC(O)(P(=O)(O)O)P(=O)(O)O", "values": [{"measurement": "EC50", "setting": "Trypanosoma cruzi", "value": "> 10000", "unit": "nM"}, {"measurement": "EC50", "setting": "Toxoplasma gondii [3]", "value": 2000, "unit": "nM"}, {"measurement": "IC50", "setting": "[4]", "value": "> 10000", "unit": "nM"}]}, {"smiles": "CCCCCCCCC(F)(P(=O)(O)O)P(=O)(O)O", "values": [{"measurement": "EC50", "setting": "Trypanosoma cruzi", "value": "> 10000", "unit": "nM"}, {"measurement": "EC50", "setting": "Toxoplasma gondii [3]", "value": 2670, "unit": "nM"}, {"measurement": "IC50", "setting": "[4]", "value": "> 1000", "unit": "nM"}]}, {"smiles": "O=P(O)(O)C(CNC1CCCC1)P(=O)(O)O", "values": [{"measurement": "EC50", "setting": "Toxoplasma gondii [3]", "value": "> 20000", "unit": "nM"}]}, {"smiles": "CCCCCCCCCC(F)(P(=O)(O)O)P(=O)(O)O", "values": [{"measurement": "EC50", "setting": "Trypanosoma cruzi", "value": "> 10000", "unit": "nM"}, {"measurement": "EC50", "setting": "Toxoplasma gondii [3]", "value": "> 10000", "unit": "nM"}, {"measurement": "IC50", "setting": "[4]", "value": "> 1000", "unit": "nM"}]}, {"smiles": "CCCCCCCCCCCNC(P(=O)(O)O)P(=O)(O)O", "values": [{"measurement": "CC50", "setting": "[1]", "value": 10000, "unit": "nM"}, {"measurement": "Activity", "setting": "Vero [6]", "value": "Toxic"}, {"measurement": "Activity", "setting": "Vero [7]", "value": "Non-Toxic"}]}]}
